Entries after “also recorded” stand apart in the source; their conditions may differ. Where a name gives a salt, the structure may show the parent alone. Read-outs that look alike come from different tables or passages of the source.
Experiments:
[1] = system: CD11a surface expression on huMSCs; assay: Medium throughput screen: CD11a surface expression on MSCs, PE-CY5 anti-CD11a antibody, laser-scanning fluorescence microplate cytometer; assay type: cell-based, human; set-up: key to Cell surface ligand CD11a (induction of expression): NA = negative activity result; A = positive activity result; conditions: pretreatment of huMSCs; for EC50: read-out: Cell Surface Marker ED 50 (M) Molar Concentration of Compound for CD11a Expression
Procedure: An in vitro screen was performed for compounds that induce surface expression on huMSCs of the marker CD11a (LFA-1). This screen may be considered a medium throughput screen. Certain compounds that induce the increase of this surface marker were then selected for testing in an in vitro firm adhesion assay and/or in vivo systemic administration in an animal model of inflammation. The surface expression screen involved fluorophore-conjugated antibodies to the respective markers. Following pretreatment with the test compounds, samples of cells were incubated with the labeled antibodies for detection of surface marker expression and change relative to a reference level of untreated cells or negative control samples or values. Cells were pretreated with a concentration (3 μM) of each small molecule compound for 24 hours, followed by incubation with a fluorophore-conjugated anti-marker antibody to detect expression on MSC surface. Surface expression levels of marker ligands were then evaluated by laser-scanning fluorescence microplate cytometer. […] Cell viability in response to compounds was also tested to assess whether molecules have toxicity after 24 hours of pretreatment. Testing was performed on two different huMSC sources representing cells from different donors.
Further details of the screening approach are provided as follows. A unique single batch of bone marrow-derived MSC cells was prepared for the entire screening campaign by cell amplification using CellStack flasks and freezing in separate vials at passage P5. […] For each run, vials were thawed and cells directly seeded on 384-well plates at 3,000 cells per well in MSCGM medium. Following an overnight incubation, cells were treated with the indicated concentrations of compounds for 24 hours. Cells were washed in PBS, 3% BSA and incubated for one hour with PE-CY5-conjugated anti-CD11a monoclonal antibody (clone HI111). Expression of CD11a at the cell surface was detected using the Acumen Explorer, a laser-scanning fluorescence microplate cytometer after two PBS washings. HL-60 cells seeded at 10,000 cells per well and treated with 100 nM phorbol 12-myristate 13-acetate (PMA) for 24 h to induce cell adhesion were used as a positive control in each 384-well plate. Positive compounds were counter-screened for their auto-fluorescence by measuring the signal in the absence of antibody.
A single batch of bone marrow-derived MSC was prepared for the entire screening campaign by cell amplification using CellStack flasks and freezing in separate vials at passage P5. […] For each run, vials were thawed and cells directly seeded on 384-well plates at 3,000 cells per well in MSCGM medium. Following an overnight incubation, cells were pretreated with a low (0.1 μM) and high (3 μM) concentration of the compounds for 24 h. 9,000 cpds were tested in 112 assay plates, each 384-well plate contained 320 cpds (from column 5 to 24), one column for Max (Column2, HL60 cells) and one column for Min (Column4, MSC cells). Cells were washed in PBS, 3% BSA and incubated for one hour with PE-CY5-conjugated anti-CD11a monoclonal Ab (BD Biosciences). Expression of CD11a at the cell surface was detected after two PBS washes using the Acumen Explorer equipment, a laser-scanning fluorescence microplate cytometer. HL-60 cells (seeded at 10,000 cells per well and treated with 100 nM phorbol 12-myristate 13-acetate (PMA) for 24 h to induce cell adhesion) were used as a positive control in each 384-well plate. Positive compounds were counter-screened for their auto-fluorescence by measuring the signal in the absence of Ab. Shown in FIG. 4 is the global screening data. Using the Max, Min columns, we have calculated Max/Min ratio generated with CD11a Ab for each assay plate (signal/background ration in green columns was calculated for each of the 112 assay plates). […]

[2] = system: LPS-induced inflamed mouse ear; assay: In vivo MSC homing to LPS-induced inflamed ear after systemic infusion, intravital microscopy; set-up: key to In vivo functional assay (homing): NA = negative activity result; A = positive activity result; conditions: for Increase of MSC homing to inflamed ear (%): relative to untreated cells
Procedure: C57BL/6 mice (Charles River Laboratories, Wilmington, Mass.) were anesthetized with ketamine/xylazine and their ears shaved 24 h prior to cell infusion. To induce an inflammatory response, 30 μg of E. coli lipopolysaccharide (LPS, Sigma, St. Louis, Mo.) in 50 μL saline was injected into the pinna of the left ear, with 50 μL 0.9% saline injected into the right ear as a control. For in vivo dye sensitivity validation, 1×10e6 cells of each stain were suspended in 150 μL PBS (pH 7.4) and injected by retro-orbital vein infusion.
To evaluate the minimum number of cells needed for a reproducible response, each mouse (n=4) received a range of cell doses (10,000, 50,000, 100,000, or 500,000) each of cells stained with Dil or DiD with a dye switch (i.e., dyes used for experimental and control cells were alternated to prevent bias based on the dyes that were used). To evaluate the impact of small molecule hit pre-treatment on MSC homing to the inflamed ear, MSCs were incubated with 3 μM of the small molecule hit or 0.1% DMSO as a control for 24 h before staining and in vivo administration. To highlight the vasculature, 50 μL of 10 mg/mL FITC-dextran ([…]; Sigma, St. Louis, Mo.) was injected retro-orbitally prior to imaging.
In vitro staining and in vivo homing of stained MSCs to the skin was imaged noninvasively in real time using a custom-built video-rate laser-scanning confocal microscope designed specifically for live animal imaging. For in vivo imaging, the mouse ear was positioned under a coverslip with methylcellulose gel and images acquired at 30 frames per second at a depth up to 200 μm using a 60×1.0NA water immersion objective lens (Olympus, Center Valley, Pa.). DiO labeled MSCs were excited with a 491 nm continuous wave (CW) laser (Cobalt, Stockholm, Sweden), and detected through a 520±20 nm bandpass filter (Semrock, Inc., Rochester, N.Y.). Dil labeled MSCs were excited with a 561 nm CW laser (Coherent, Inc., Santa Clara, Calif.) and detected through a 593 nm±40 nm filter (Omega Optical, Brattleboro, Vt.). DiD labeled MSCs were excited with a 635 nm CW laser (Coherent, Inc., Santa Clara, Calif.) and detected through a 695 nm±27.5 nm band pass filter (Omega Optical, Brattleboro, Vt.). DiR labeled MSCs were excited using a femtosecond Ti:Sapphire Maitai source for single photon excitation at 750 nm (Spectra Physics, Santa Clara, Calif.) and collected through a 785 nm±31 nm band pass filter (Omega Optical, Brattleboro, Vt.).
For quantification, the average number of cells in 20 representative imaging locations across the inflamed region was counted in each mouse. Cells were defined as having a diameter from 10-30 μm to eliminate debris and clumps from analysis, and a primary channel intensity greater than 2 to eliminate autofluorescent events. The average relative detection sensitivity (ratio of Dil/DiD counts) determined in the overall dye efficiency experiments were used to scale the counts for DiD stained cells. […] For multiple comparisons, Tukey's HSD test was used. Error bars in graphs represent standard error, and statistical significance is denoted by * p<0.05.

[3] = system: human mesenchymal stem cells; assay: In vitro functional firm adhesion assay of cells (Table 3, coating not stated); assay type: cell-based; set-up: key to Result, in vitro Firm Adhesion: NA = negative activity result; A = positive activity result; conditions: for Result, in vitro Firm Adhesion: pretreated huMSCs; for Firm adhesion, Percent increase: relative to untreated and/or negative control MSCs
Procedure: (§1) Cell adhesion experiments were performed using Bioflux1000 (FluxionBio), allowing accurate control over shear flow. A special 48-well plate was used, in which a microfluidic channel (350 μm×70 μm) connects each pair of adjacent wells (termed inlet and outlet wells). The plate was placed under vacuum and the channels were coated from the inlet with recombinant human E-selectin (5 μg/mL) or ICAM-1 (5 μg/mL) and incubated at 37° C. for 1 h. Prior to introducing the cells into the channel, a wash with PBS−/− from the outlet well was performed for 5 min. Compound-pretreated MSCs were introduced into the channel, followed by attachment period of 2 minutes (no flow applied during the attachment period). Attached cells were then subjected to increasing shear flow, ranging from 0.25 dynes/cm^2 for up to 10 dynes/cm^2. Images were acquired using the Montage software and cell adhesion to the coated channels following subjection to shear flow was examined. See also disclosure elsewhere herein.
1. Obtain preferred channel coating (protein/cell monolayer). 2. Prepare cell suspension (same concentrations detailed above for different cell types). 3. Add 50 μl of cell suspension to outlet well. 4. Introduce cells into channel by applying shear force of 2 dynes/cm^2 (cells should be observed within 10-15 sec flowing from outlet to inlet). 5. Once cells are observed in the channel, stop the flow and allow the introduced cells to sit for different time periods ranging from 30 seconds to 5 minutes. 6. Following this settling period, apply shear force starting from 0.5 dynes/cm^2 up to 10 dynes/cm^2 and acquire videos using stream acquisition. 7. Cell quantification is then performed using the Montage software—percentage of cells adhered, rolled or washed away after applying shear flow should be quantified.

[4] = system: MSC firm adhesion to ICAM-1-coated surface; assay: ICAM-1 firm adhesion assay under shear flow, with antibody blocking; assay type: cell-based, human; conditions: 3 μM for 24 h
Procedure: as §1
Pre-confluent MSCs were incubated for 24 hours with the indicated small molecules (3 μM). MSCs were than detached, washed and incubated for 30 minutes with an antibody reagent. The following antibodies are used: anti-human CD11a (clone: HI111), anti-human CD90 (clone: MAB2067), mouse anti-human CD11a (clone: TS1/22), and mouse IgG1 isotype control. Cells were then introduced into the channel and given 2 minutes to adhere before being subjected to increasing shear flow for a firm adhesion assay on a microfluidic channel coated with E-selectin or ICAM-1.

[5] = system: CD11a surface expression on MSCs; assay: Flow cytometry of CD11a surface expression on MSCs (FITC-CD11a Ab); assay type: cell-based, human; conditions: 3 μM for 24 h
Procedure: MSCs were pretreated with DMSO vehicle control (DMSO-MSC, 0.1%) or ruboxistaurin (Rub-MSC, 3 μM) for 24 h and CD11a expression levels were assessed via flow cytometry (cells were stained with either FITC-CD11a Ab or isotype control, representative data from n=3 independent experiments).

Row | Structure (SMILES) | EC50 ([1]; Homo sapiens) [M] | Cell surface ligand CD11a (induction of expression) [1] | Firm adhesion, Percent increase [3] | other results
1 | CN1C(=O)C(c2c[nH]c3ccccc23)=C(c2cn(C)c3ccccc23)C1=O [Compound 1905, 3-(1H-indol-3-yl)-1-methyl-4-(1-methyl-1H-indol-3-yl)-pyrrole-2,5-dione] | 1.68e-05 |  |  | 
2 | Cn1cc(C2=C(c3cn(C4CCN(Cc5ccccn5)CC4)c4ccccc34)C(=O)NC2=O)c2ccccc21 [Compound 1906, 3-(1-methyl-1H-indol-3-yl)-4-[1-(1-pyridin-2-ylmethyl-piperidin-4-yl)-1H-indol-3-yl]-pyrrole-2,5-dione, reference compound] | 3.19e-06 |  |  | 
3 | Cn1cc(C2=C(c3cn(C)c4ccccc34)C(=O)NC2=O)c2ccccc21 [Compound 1912, 3,4-bis-(1-methyl-1H-indol-3-yl)-pyrrole-2,5-dione] |  | A |  | 
4 | Cn1cc(C2=C(c3c4n(c5ccccc35)CCC(CN)C4)C(=O)NC2=O)c2ccccc21 (stereo not shown) [Compound 1919, 3-(8-aminomethyl-6,7,8,9-tetrahydro-pyrido[1,2-a]indol-10-yl)-4-(1-methyl-1H-indol-3-yl)-pyrrole-2,5-dione] |  | A | 81% | Increase of MSC homing to inflamed ear (%) [2]: 45%; In vivo functional assay (homing) ([2]; systemic administration of pretreated huMSCs): A; EC50 [1]: 2.75e-06 M; Result, in vitro Firm Adhesion [3]: A
5 | O=C1C(c2c[nH]c3ccccc23)=C(c2c[nH]c3ccccc23)C(=O)N1Cc1ccccc1 [Compound 1921, 1-benzyl-3,4-bis-(1H-indol-3-yl)-pyrrole-2,5-dione] | 1.75e-05 | A |  | 
6 | CN1CCCC1CCn1cc(C2=C(c3c[nH]c4ccccc34)C(=O)NC2=O)c2ccccc21 (stereo not shown) [Compound 1928, 3-(1H-indol-3-yl)-4-{1-[2-(1-methyl-pyrrolidin-2-yl)-ethyl]-1H-indol-3-yl}-pyrrole-2,5-dione] |  | A |  | 
7 | CN(C)CC1CCn2c(c(C3=C(c4cn(C)c5ccccc45)C(=O)NC3=O)c3ccccc32)C1 (stereo not shown) [Compound 1933, 3-(8-dimethylaminomethyl-6,7,8,9-tetrahydro-pyrido[1,2-a]indol-10-yl)-4-(1-methyl-1H-indol-3-yl)-pyrrole-2,5-dione hydrochloride] | 2.49e-05 | A | 75% | Increase of MSC homing to inflamed ear (%) [2]: <10%; Result, in vitro Firm Adhesion [3]: A
8 | CN(C)CCCn1cc(C2=C(c3c[nH]c4ccccc34)C(=O)NC2=O)c2ccccc21 [Compound 1934, 3-[1-(3-dimethylamino-propyl)-1H-indol-3-yl]-4-(1H-indol-3-yl)-pyrrole-2,5-dione] |  | A |  | 
9 | CN(C)C[C@@H]1CCn2cc(c3ccccc32)C2=C(C(=O)NC2=O)c2cn(c3ccccc23)CCO1 [Ruboxistaurin, ruboxistaurin, reference compound] | > 3e-05 |  | 0% (negative response) | MSC firm adhesion to ICAM-1-coated substrates, result in words [4]: did not improve; CD11a surface expression on MSCs [5]: did not increase; also recorded: does not upregulate

Source: patent US20170216360A1, “METHODS AND COMPOSITIONS FOR IMPROVING HOMING OF CELLS INCLUDING MESENCHYMAL STEM CELLS” (SANOFI, priority 2014, published 2017)
